Results published in the supplement of paper PMC10307832.

Tests used:
Experiment in all cases: relative viability (nuclei count vs DMSO), 5 days (fraction); higher = more cells survive
Doxorubicin + Alpelisib = compound: COc1cccc2c1C(=O)c1c(O)c3c(c(O)c1C2=O)C[C@@](O)(C(=O)CO)C[C@@H]3O[C@H]1C[C@H](N)[C@H](O)[C@H](C)O1 [Doxorubicin] + Cc1nc(NC(=O)N2CCC[C@H]2C(N)=O)sc1-c1ccnc(C(C)(C)C(F)(F)F)c1 [Alpelisib] (partner 2 µM)
Method in brief: (§1)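 Medians of duplicate plates are given as relative viability. That measure is the nuclei count in treated wells divided by the count in vehicle wells. Counts were taken on 4× images of lung cancer cell lines in 1536-well plates, 5 days after pin-tool dosing the day after seeding with one drug alone or a fixed anchor-drug dose plus five library-drug doses (not always all listed) in √10 steps.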

BAY61-3606 + OSI-027 = compound: COC1=C(C=C(C=C1)C2=CC3=NC=CN3C(=N2)NC4=C(C=CC=N4)C(=O)N)OC [BAY61-3606] + COc1cccc2cc(-c3nc([C@H]4CC[C@H](C(=O)O)CC4)n4ncnc(N)c34)[nH]c12 [OSI-027] (partner 0.5 µM)
Method in brief: as §1

BAY61-3606 + Tozasertib = compound: COC1=C(C=C(C=C1)C2=CC3=NC=CN3C(=N2)NC4=C(C=CC=N4)C(=O)N)OC [BAY61-3606] + Cc1cc(Nc2cc(N3CCN(C)CC3)nc(Sc3ccc(NC(=O)C4CC4)cc3)n2)n[nH]1 [Tozasertib] (partner 0.1 µM)
Method in brief: as §1

BAY61-3606 + AZD7762 = compound: COC1=C(C=C(C=C1)C2=CC3=NC=CN3C(=N2)NC4=C(C=CC=N4)C(=O)N)OC [BAY61-3606] + NC(=O)Nc1cc(-c2cccc(F)c2)sc1C(=O)N[C@H]1CCCNC1 [AZD7762] (partner 0.2 µM)
Method in brief: as §1

Cell Line	relative viability (Doxorubicin + Alpelisib; first compound 0.001 µM)	relative viability (Doxorubicin + Alpelisib; first compound 0.003162 µM)	relative viability (Doxorubicin + Alpelisib; first compound 0.01 µM)	relative viability (Doxorubicin + Alpelisib; first compound 0.03162 µM)	relative viability (Doxorubicin + Alpelisib; first compound 0.1 µM)	relative viability (BAY61-3606 + OSI-027; first compound 0.02 µM)	relative viability (BAY61-3606 + OSI-027; first compound 0.06325 µM)	relative viability (BAY61-3606 + OSI-027; first compound 0.2 µM)	relative viability (BAY61-3606 + OSI-027; first compound 0.6325 µM)	relative viability (BAY61-3606 + OSI-027; first compound 2 µM)	relative viability (BAY61-3606 + Tozasertib; first compound 0.02 µM)	relative viability (BAY61-3606 + Tozasertib; first compound 0.06325 µM)	relative viability (BAY61-3606 + Tozasertib; first compound 0.2 µM)	relative viability (BAY61-3606 + Tozasertib; first compound 0.6325 µM)	relative viability (BAY61-3606 + Tozasertib; first compound 2 µM)	relative viability (BAY61-3606 + AZD7762; first compound 0.02 µM)	relative viability (BAY61-3606 + AZD7762; first compound 0.06325 µM)	relative viability (BAY61-3606 + AZD7762; first compound 0.2 µM)	relative viability (BAY61-3606 + AZD7762; first compound 0.6325 µM)	relative viability (BAY61-3606 + AZD7762; first compound 2 µM)
NCI-H1755	0.918	0.992	0.719	0.947	0.94	0.743	0.657	0.701	0.712	0.671	0.681	0.422	0.49	0.438	0.403	0.439	0.483	0.462	0.422	0.59
LU99A	0.489	0.648	0.549	0.505	0.51	0.315	0.271	0.298	0.26	0.306	0.279	0.216	0.217	0.239	0.177	0.41	0.306	0.358	0.399	0.334
NCI-H2347	0.985	0.935	0.997	0.899	1.02	0.492	0.365	0.457	0.487	0.281	0.531	0.384	0.394	0.427	0.32	0.801	0.701	0.73	0.67	0.709
NCI-H650	1.31	1.13	1.06	0.938	0.822	0.509	0.532	0.439	0.495	0.513	0.795	0.263	0.648	0.455	0.226	1.18	0.887	0.889	0.998	0.999
NCI-H1666	0.938	0.814	0.551	0.27	0.284	0.817	0.84	0.824	0.894	0.841	0.6	0.572	0.492	0.473	0.458	0.917	0.895	0.852	0.834	0.82
PC-3 [JPC-3]	1.02	1.02	1.05	1	1.03	–	0.756	0.711	0.787	0.704	–	0.891	0.889	0.837	0.613	0.675	0.794	0.809	0.801	0.752
HARA	0.816	0.845	0.76	0.782	0.812	0.554	0.463	0.513	0.536	0.311	0.144	0.13	0.11	0.123	0.0865	0.286	0.291	0.452	0.303	0.3
NCI-H727	0.45	0.617	0.55	0.469	0.705	0.604	0.559	0.71	0.688	0.513	0.799	0.593	0.521	0.656	0.442	0.747	0.509	0.577	0.75	0.734
